Our source for the IC50 values is US20090306122A1, “SUBSTITUTED TETRAHYDROPYRROLOQUINOLINE DERIVATIVES AS KINASE MODULATORS, ESPECIALLY OF TYROSINE AND RAF KINASES” (priority 2005, published 2009).

The experiment addresses T1, IGF1-R kinase (Homo sapiens, UniProt P08069).
T1 construct: purchased ProQinase
Briefly: Assay for the determination of IGF1-R kinase inhibition (AlphaScreen). It is filed as biochemical. Conditions: ATP 1 μM, biotinylated poly Glu, Tyr 4:1. The source says:
Assay for the Determination of IGF1-R Kinase Inhibition
Lit.: G. Warner et al., Current Medicinal Chemistry, 2004, 11, 721-730
Use is made of AlphaScreen technology [(Amplified Luminescent Proximity Homogenous Assay), PerkinElmer], which is based on the amplification of a signal generated on interaction of so-called donor and acceptor beads. The convergence of two molecules can be measured very sensitively via this system.
The AlphaScreen test is based on traditional kinase tests, with the exception that the kinase activity is detected non-radioactively.
The binding of molecules which have been captured on the beads results in energy transfer from one bead to the other, which ultimately results in a luminescence/fluorescence signal.
In the absence of IGF1-R kinase activity, no signal is detected.
The kinase phosphorylates the biotinylated polypeptide (poly Glu, Tyr, 4:1) on the tyrosine.
The phosphorylated biotinylated peptide binds to streptavidin donor beads (biotin-streptavidin binding). The anti-phospho-tyrosine P-Tyr-100 antibody bound to the acceptor beads binds to phospho-tyrosine via the antigen binding site, giving a complex of:
Donor bead-streptavidin <->biotin-phosphopeptide (P substrate)<->antiphospho antibody-acceptor bead
If light having a wavelength of 680 nm is incident, the donor beads produce singlet oxygen, which, on adequate spatial proximity of the acceptor beads (only on formation of complex), causes the latter to emit at 520/620 nm.
Test procedure: the test is carried out in a 384-well OptiPlate™-384 Art.: 6007290 from Perkin Elmer
IGF1-R, enzyme from “ProQinase” • IGF1-R, 20 μl • Final concentration: 0.5 ng of kinase/well • (in 50 mM MOPS assay buffer pH 7.0 (comprising 0.20 mM • EDTA; 5.0 mM MnCl2; 10 mM MgCl2; 0.002% of BriJ; 0.002% of 2-mercaptoethanol and 0.1% of BSA) • +Test substance or standard sample, 3.0 μl • are pipetted into MTP well, shaken briefly and pre-incubated.
Pre-incubation: 30 minutes at RT (with continuous gentle shaking)
ATP/biotinylated substrate mix, 10 μl is added • ATP adenosine 5′-triphosphate, disodium salt (Calbiochem)/biotinylated poly Glu, Tyr, 4:1 (from Perkin Elmer) • Final concentration of ATP: 1 μM • Final concentration of biotinylated poly Glu, Tyr, 4:1:1 nM • Shake briefly and incubate. • Incubation: 45 minutes at RT (with continuous gentle shaking) 3. • Beads, P-Tyr-100 acceptor beads; antiphosphotyrosine (P-Tyr-100) acceptor beads • and simultaneously Streptavidin donor beads, 20 μl, are pipetted into well in a darkened room and shaken briefly. • Final concentration: 5 μg/ml of beads • Acceptor/donor beads are prepared shortly in advance in AlphaScreen detection/stop buffer (25 mM HEPES buffer comprising 100 mM NaCl, 0.1% of BSA, 100 mM EDTA). • This is followed by • Incubation: 20 hours at RT in the dark • Measurement: on the fusion a screen in Alpha programme 1 sec.

T1 sequence (P08069 31-1367): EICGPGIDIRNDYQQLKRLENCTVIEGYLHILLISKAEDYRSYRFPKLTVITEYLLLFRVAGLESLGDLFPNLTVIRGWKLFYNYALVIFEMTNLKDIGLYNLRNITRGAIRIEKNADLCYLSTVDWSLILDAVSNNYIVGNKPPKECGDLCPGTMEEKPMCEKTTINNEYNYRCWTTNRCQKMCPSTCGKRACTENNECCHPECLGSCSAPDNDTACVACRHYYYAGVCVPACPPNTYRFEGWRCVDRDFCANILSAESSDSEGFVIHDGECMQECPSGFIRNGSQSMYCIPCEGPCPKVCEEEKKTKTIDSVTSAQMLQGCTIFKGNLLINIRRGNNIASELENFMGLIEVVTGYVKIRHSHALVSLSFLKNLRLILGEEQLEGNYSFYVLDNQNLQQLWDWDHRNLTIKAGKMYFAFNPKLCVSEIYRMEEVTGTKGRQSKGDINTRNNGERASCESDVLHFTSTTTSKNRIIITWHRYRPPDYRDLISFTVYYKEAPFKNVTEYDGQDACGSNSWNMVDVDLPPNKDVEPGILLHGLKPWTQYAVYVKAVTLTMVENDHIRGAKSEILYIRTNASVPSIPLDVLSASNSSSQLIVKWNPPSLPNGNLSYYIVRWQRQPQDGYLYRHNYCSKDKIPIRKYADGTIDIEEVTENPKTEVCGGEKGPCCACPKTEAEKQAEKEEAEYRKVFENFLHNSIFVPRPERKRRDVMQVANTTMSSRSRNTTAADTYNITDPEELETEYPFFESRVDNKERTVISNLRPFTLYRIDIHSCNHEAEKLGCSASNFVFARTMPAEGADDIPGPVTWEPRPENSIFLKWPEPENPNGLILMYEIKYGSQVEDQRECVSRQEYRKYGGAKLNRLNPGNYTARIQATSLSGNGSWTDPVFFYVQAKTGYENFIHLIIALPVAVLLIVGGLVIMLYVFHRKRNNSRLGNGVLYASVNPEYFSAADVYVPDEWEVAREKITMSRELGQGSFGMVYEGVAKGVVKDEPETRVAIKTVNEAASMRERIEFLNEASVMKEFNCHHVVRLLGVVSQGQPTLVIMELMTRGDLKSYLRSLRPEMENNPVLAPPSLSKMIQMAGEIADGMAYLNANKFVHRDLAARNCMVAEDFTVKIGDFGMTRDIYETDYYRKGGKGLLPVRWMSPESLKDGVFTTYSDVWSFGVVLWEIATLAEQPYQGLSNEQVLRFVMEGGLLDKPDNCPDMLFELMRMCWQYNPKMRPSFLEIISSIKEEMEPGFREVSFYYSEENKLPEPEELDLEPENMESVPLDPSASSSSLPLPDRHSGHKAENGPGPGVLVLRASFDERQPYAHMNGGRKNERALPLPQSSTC

`COc1cccc(C2CC(N3CCCC3=O)c3cc(F)cc4c3N2CC4)c1` (centres unmarked) [Compound 1, 6-(2-oxopyrrolidin-1-yl)-8-fluoro-4-(3-methoxyphenyl)-1,2,5,6-tetrahydro-4H-pyrrolo[3,2,1-ij]quinoline]: it took 29 µM to reach half-maximal inhibition (IC50).

On to `O=C1CCCN1C1CC(c2cccc(Cl)c2Cl)N2CCc3cccc1c32` (centres unmarked) [Compound 2], for which the IC50 stood at 5 µM. The compound `O=C1CCCN1C1CC(c2cccc(Br)c2)N2CCc3cccc1c32` (centres unmarked) [Compound 3] gave an IC50 of 1.3 µM.

Compound `O=C1CCCN1C1CC(c2ccc(Cl)cc2F)N2CCc3cccc1c32` (centres unmarked) [Compound 4] had an IC50 of 1.5 µM.

`CCc1ccc(C2CC(N3CCCC3=O)c3cccc4c3N2CC4)cc1` (centres unmarked) [Compound 5] showed a half-maximal inhibitory concentration (IC50) of 2.2 µM.

As to `O=C1CCCN1C1CC(c2cccc(Cl)c2)N2CCc3cccc1c32` (centres unmarked) [Compound 6], the half-inhibitory concentration (IC50) was determined as 2.9 µM. Turning to `O=C1CCCN1C1CC(c2cccc(C(F)(F)F)c2)N2CCc3cccc1c32` (centres unmarked) [Compound 7], the IC50 amounted to 4.5 µM. The result for `CC(C)(C)c1ccc(C2CC(N3CCCC3=O)c3cccc4c3N2CC4)cc1` (centres unmarked) [Compound 8] reads 1.6 µM. To `CC(C)c1ccc(C2CC(N3CCCC3=O)c3cccc4c3N2CC4)cc1` (centres unmarked) [Compound 9] belongs 2 µM; to `Cc1cccc(C2CC(N3CCCC3=O)c3cccc4c3N2CC4)c1` (centres unmarked) [Compound 10], 3.6 µM.

Regarding `CCCc1ccc(C2CC(N3CCCC3=O)c3cccc4c3N2CC4)cc1` (centres unmarked) [Compound 11], inhibition was half-maximal at 3.5 µM (IC50). The result for `O=C1CCCN1C1CC(c2ccccc2Br)N2CCc3cccc1c32` (centres unmarked) [Compound 12] reads 2.5 µM; that for `O=C1CCCN1C1CC(c2cc(C(F)(F)F)cc(C(F)(F)F)c2)N2CCc3cccc1c32` (centres unmarked) [Compound 13], 5.69 µM; that for `O=C1CCCN1C1CC(c2ccc(Cl)c([N+](=O)[O-])c2)N2CCc3cccc1c32` (centres unmarked) [Compound 14], 6 µM. In turn, `O=C1CCCN1C1CC(c2ccccc2F)N2CCc3cccc1c32` (centres unmarked) [Compound 15] came in with an IC50 of 1.5 µM.

The compound `O=C1CCCN1C1CC(c2ccccc2Cl)N2CCc3cccc1c32` (centres unmarked) [Compound 16] had an IC50 of 3.1 µM. To `Cc1ccc(C2CC(N3CCCC3=O)c3cccc4c3N2CC4)cc1` (centres unmarked) [Compound 17] belongs 2.6 µM.

In turn, `O=C1CCCN1C1CC(c2ccc(Br)cc2F)N2CCc3cccc1c32` (centres unmarked) [Compound 18] came in with an IC50 of 2.1 µM. With `Cc1ccc(C2CC(N3CCCC3=O)c3cccc4c3N2CC4)cc1[N+](=O)[O-]` (centres unmarked) [Compound 19], the IC50 is 3.3 µM.

Turning to `O=C1CCCN1C1CC(c2cc(F)cc(C(F)(F)F)c2)N2CCc3cccc1c32` (centres unmarked) [Compound 20], the IC50 came to 10 µM. The result for `CC(C)(C)OC(=O)Oc1ccc(C2CC(N3CCCC3=O)c3cccc4c3N2CC4)cc1` (centres unmarked) [Compound 21] reads 1.8 µM; that for `O=C1CCCN1C1CC(c2ncc(C(F)(F)F)cc2Cl)N2CCc3cccc1c32` (centres unmarked) [Compound 22], 1.7 µM; that for `O=C1CCCN1C1CC(c2ccc(Cl)cc2Cl)N2CCc3cccc1c32` (centres unmarked) [Compound 23], 4 µM. Compound `O=C1CCCN1C1CC(c2cc(F)cc(F)c2)N2CCc3cccc1c32` (centres unmarked) [Compound 24] registered an IC50 of 3.3 µM. To `COc1cccc(C2CC(N3CCCC3=O)c3cccc4c3N2CC4)c1OC` (centres unmarked) [Compound 25] belongs 0.19 µM; to `CCOc1ccccc1C1CC(N2CCCC2=O)c2cccc3c2N1CC3` (centres unmarked) [Compound 26], 1.4 µM; to `COc1ccc(OC)c(C2CC(N3CCCC3=O)c3cccc4c3N2CC4)c1` (centres unmarked) [Compound 27], 2.1 µM. The result for `COc1cccc(OC)c1C1CC(N2CCCC2=O)c2cccc3c2N1CC3` (centres unmarked) [Compound 28] reads 2.1 µM. Take `O=C1CCCN1C1CC(c2ccccc2OCc2ccccc2)N2CCc3cccc1c32` (centres unmarked) [Compound 29]: the IC50 is 1.1 µM. `O=C1CCCN1C1CC(c2cccc(OCc3ccccc3)c2)N2CCc3cccc1c32` (centres unmarked) [Compound 30] yielded an IC50 of 2.8 µM. `COc1cccc(C2CC(N3CCCC3=O)c3cccc4c3N2CC4)c1` (centres unmarked) [Compound 31] came in with an IC50 of 2 µM. The result for `COc1ccccc1C1CC(N2CCCC2=O)c2cccc3c2N1CC3` (centres unmarked) [Compound 32] reads 6 µM. Turning to `COc1ccc(Oc2cccc(C3CC(N4CCCC4=O)c4cccc5c4N3CC5)c2)cc1` (centres unmarked) [Compound 33], the IC50 was determined as 2.1 µM. For `O=C1CCCN1C1CC(c2cccc3c2OCO3)N2CCc3cccc1c32` (centres unmarked) [Compound 34], the IC50 turned out to be 4.8 µM. `CCOc1ccc(C2CC(N3CCCC3=O)c3cccc4c3N2CC4)c(OCC)c1C` (centres unmarked) [Compound 35]: the IC50 is 3.5 µM. To `COc1cc(C2CC(N3CCCC3=O)c3cccc4c3N2CC4)ccc1OC(=O)OC(C)(C)C` (centres unmarked) [Compound 36] belongs 0.93 µM. To `O=C1CCCN1C1CC(c2ccc(-c3ccccc3[N+](=O)[O-])o2)N2CCc3cccc1c32` (centres unmarked) [Compound 37] belongs 0.26 µM; to `COc1cccc(C2CC(N(C)C(C)=O)c3cccc4c3N2CC4)c1` (centres unmarked) [Compound 38], 2.1 µM; to `O=C1CCCN1C1CC(c2cccc(OCc3ccccc3)c2)N2CCc3cc(F)cc1c32` (centres unmarked) [Compound 40], 2.7 µM.

On to `O=C1CCCN1C1CC(c2ccccc2Cl)N2CCc3cc(F)cc1c32` (centres unmarked) [Compound 41], for which the IC50 is 4.5 µM.

Compound `O=C1CCCN1C1CC(c2cccc(-c3ccc(F)cc3)c2)N2CCc3cccc1c32` (centres unmarked) [Compound 42] came in with an IC50 of 5.5 µM. The compound `O=C1CCCN1C1CC(c2cccc(-c3ccc(C(F)(F)F)cc3)c2)N2CCc3cccc1c32` (centres unmarked) [Compound 43] gave an IC50 of 7.4 µM. The result for `O=C1CCCN1C1CC(c2cccc(-c3cccc(OC(F)(F)F)c3)c2)N2CCc3cccc1c32` (centres unmarked) [Compound 44] reads 21 µM. `O=C(O)c1ccc(C2CC(N3CCCC3=O)c3cccc4c3N2CC4)cc1` (centres unmarked) [Compound 45]: the IC50 is 14 µM.

In general, IC50 refers to the point on the concentration scale where inhibition reaches its midpoint. Read a low IC50 as inhibition by little substance.
